Test results reported in the supplement of paper PMC10307832.

Legend:
Assay in all cases: relative viability (nuclei count vs DMSO), 5 days (fraction); higher = more cells survive
[1] = compound: C1=CC2=C(C=C(C(=C2N=C1)O)N=NC3=CC4=C(C=C3)C=C(C=C4)S(=O)(=O)O)S(=O)(=O)O + CS(=O)(=O)CCNCc1ccc(-c2ccc3ncnc(Nc4ccc(OCc5cccc(F)c5)c(Cl)c4)c3c2)o1 [Lapatinib] (partner 2 µM)
Procedure, shortened: (§1)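 Relative viability equals treated-well nuclei counts divided by vehicle-well nuclei counts. Counts came from 4× images of lung cancer cell lines grown in 1536-well plates for 5 days after pin-tool dosing on the day after seeding. Dosing used one drug alone or a fixed anchor-drug dose plus five library-drug doses (not always all listed) in √10 steps, and values are medians of duplicate plates.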

AT-7519 + Olaparib = compound: O=C(NC1CCNCC1)c1n[nH]cc1NC(=O)c1c(Cl)cccc1Cl [AT-7519] + O=C(c1cc(Cc2n[nH]c(=O)c3ccccc23)ccc1F)N1CCN(C(=O)C2CC2)CC1 [Olaparib] (partner 8 µM)
Procedure, shortened: as §1

AT-7519 + Crizotinib = compound: O=C(NC1CCNCC1)c1n[nH]cc1NC(=O)c1c(Cl)cccc1Cl [AT-7519] + C[C@@H](Oc1cc(-c2cnn(C3CCNCC3)c2)cnc1N)c1c(Cl)ccc(F)c1Cl [Crizotinib] (partner 1 µM)
Procedure, shortened: as §1

[2] = compound: C1=CC2=C(C=C(C(=C2N=C1)O)N=NC3=CC4=C(C=C3)C=C(C=C4)S(=O)(=O)O)S(=O)(=O)O + Cc1nc(Nc2ncc(C(=O)Nc3c(C)cccc3Cl)s2)cc(N2CCN(CCO)CC2)n1 [Dasatinib] (partner 0.075 µM)
Procedure, shortened: as §1

Cell Line	relative viability ([1]; first compound 0.08 µM)	relative viability ([1]; first compound 0.253 µM)	relative viability ([1]; first compound 0.8 µM)	relative viability ([1]; first compound 2.53 µM)	relative viability ([1]; first compound 8 µM)	relative viability (AT-7519 + Olaparib; first compound 0.01 µM)	relative viability (AT-7519 + Olaparib; first compound 0.03162 µM)	relative viability (AT-7519 + Olaparib; first compound 0.3162 µM)	relative viability (AT-7519 + Olaparib; first compound 1 µM)	relative viability (AT-7519 + Crizotinib; first compound 0.01 µM)	relative viability (AT-7519 + Crizotinib; first compound 0.03162 µM)	relative viability (AT-7519 + Crizotinib; first compound 0.3162 µM)	relative viability (AT-7519 + Crizotinib; first compound 1 µM)	relative viability ([2]; first compound 0.08 µM)	relative viability ([2]; first compound 0.253 µM)	relative viability ([2]; first compound 0.8 µM)	relative viability ([2]; first compound 2.53 µM)	relative viability ([2]; first compound 8 µM)
NCI-H1792	0.996	0.853	0.834	0.916	0.913	0.282	0.313	0.522	0.311	0.548	0.916	0.904	1.09	0.772	0.669	0.458	0.84	0.835
NCI-H1915	1.06	1.01	1	0.883	1.02	0.25	0.273	0.292	0.208	0.933	0.926	0.793	0.741	0.311	0.321	0.29	0.316	0.314
NCI-H1944	0.8	0.753	0.765	0.753	0.565	0.383	0.424	0.412	0.337	1.18	1.34	0.926	0.862	0.222	0.244	0.201	0.212	0.206
NCI-H1975	1.08	0.883	0.833	0.987	0.861	0.816	0.67	0.641	0.15	1.09	0.973	0.877	0.206	0.388	0.356	0.343	0.4	0.388
NCI-H1993	0.82	0.71	0.801	0.723	0.589	1.04	0.833	0.973	0.769	0.846	0.82	0.813	0.577	0.579	0.648	0.633	0.594	0.566
NCI-H2009	0.898	0.889	0.871	0.884	0.836	0.663	0.697	0.61	0.707	1.21	1.07	1.12	0.295	0.261	0.275	0.288	0.313	0.283
NCI-H2023	0.825	0.773	0.899	0.95	0.818	0.46	0.485	0.386	0.128	0.702	0.697	0.605	0.125	0.689	0.622	0.558	0.648	0.541
NCI-H2085	0.915	0.783	0.749	0.818	0.842	0.768	0.806	0.744	0.724	0.762	0.832	0.696	0.553	0.277	0.253	0.254	0.208	0.291
NCI-H2087	1.16	0.981	1.02	1.03	1.02	0.607	0.515	0.421	0.0663	0.801	0.868	0.894	0.171	0.962	0.872	0.715	0.847	0.884
